Laboratory results taken from BindingDB's records for patent US9062048 (Janssen Pharmaceutica, 2015).

Target: C-C chemokine receptor type 2 (Homo sapiens, UniProt P41597)
Assay: Receptor Binding Assay

C-C chemokine receptor type 2, sequence (P41597 whole entry): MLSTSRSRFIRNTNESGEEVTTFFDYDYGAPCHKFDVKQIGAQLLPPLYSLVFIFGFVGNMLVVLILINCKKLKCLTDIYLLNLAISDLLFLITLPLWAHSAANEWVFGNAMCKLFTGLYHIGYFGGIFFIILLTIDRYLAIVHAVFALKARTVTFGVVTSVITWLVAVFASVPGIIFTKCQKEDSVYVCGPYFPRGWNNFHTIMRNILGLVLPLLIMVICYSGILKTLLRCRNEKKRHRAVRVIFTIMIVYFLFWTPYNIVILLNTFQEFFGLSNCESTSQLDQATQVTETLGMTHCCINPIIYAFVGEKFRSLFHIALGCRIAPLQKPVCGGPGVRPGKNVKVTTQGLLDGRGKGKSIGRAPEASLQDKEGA

Row | IC50 [nM] | SMILES
1 | 172 | C[S+]([O-])CC(O)[C@H]1CC[C@@H](N2CC(NC(=O)CNc3ncnc4ccc(C(F)(F)F)cc34)C2)CC1 (some centres not stated) [US9062048, 21]
2 | 1230 | CCC(NC(=O)NC)[C@H]1CC[C@@H](N2CC(NC(=O)CNc3ncnc4ccc(C(F)(F)F)cc34)C2)CC1 (some centres not stated) [US9062048, 142]
